PubChem BioAssay AID687022 (Broad Institute, 2013)
Calls of active or inactive are those of the source.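 The calls were made as follows: active = Fitted curve of melting temperature shift crosses the 1.0 threshold at or below the sample's highest valid tested concentration; inconclusive = Flat fit with activity 30 to 70, or invalid fit; inactive = Opposite direction, flat within 30, or no crossing.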

Target: Fibroblast growth factor 22 (Homo sapiens) (UniProt Q9HCT0)
Assay: binders of human FGF22 protein, dose response, FGF22 synaptogenesis inhibitor project, biophysical, thermal shift, cherry-pick (AID 687022)
Conditions: recombinant FGF22 thermal shift, SYPRO orange melting

Chain of Fibroblast growth factor 22 (Homo sapiens) (Q9HCT0 whole entry, looked up): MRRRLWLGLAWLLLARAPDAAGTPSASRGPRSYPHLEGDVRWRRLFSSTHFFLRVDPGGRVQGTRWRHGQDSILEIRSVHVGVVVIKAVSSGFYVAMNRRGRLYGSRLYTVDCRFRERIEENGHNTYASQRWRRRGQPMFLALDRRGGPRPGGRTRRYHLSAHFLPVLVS

Compound: COc1cc(/C=N/NC(=O)c2[nH]nc3c2CCc2ccccc2-3)ccc1O
- AbsAC1 (concentration giving Tm-shift threshold 1.0): 6.1 µM

Compound: CC(C)Oc1ccc(F)cc1-c1cc(C(=O)NCc2cccs2)[nH]n1
- AbsAC1 (concentration giving Tm-shift threshold 1.0): 8.55 µM

Compound: CCOc1ccc(NS(=O)(=O)c2ccc(C(=O)NNC(=O)c3ccccc3O)cc2)cc1
- AbsAC1 (concentration giving Tm-shift threshold 1.0): > 38 µM (inactive)

Compound: COc1ccc(/C(O)=C/C(=O)C(=O)NNC(=O)c2ccccc2)cc1
- AbsAC1 (concentration giving Tm-shift threshold 1.0): 31.6 µM

Compound: Cc1cccc(S(=O)(=O)N2C[C@H](O)COC[C@H]3O[C@H](CC(=O)Nc4ccccc4)CC[C@@H]32)c1
- AbsAC1 (concentration giving Tm-shift threshold 1.0): 7.19 µM

Compound: O=[N+]([O-])c1ccc(N/N=C/c2ccc[nH]2)cc1
- AbsAC1 (concentration giving Tm-shift threshold 1.0): 8.39 µM

Compound: COc1ccc(-c2cn(CC[C@H]3CC[C@H](NC(=O)Nc4ccc(F)cc4)[C@@H](CO)O3)nn2)cc1
- AbsAC1 (concentration giving Tm-shift threshold 1.0): 18 µM

Compound: COC(=O)CN1C(=S)N(c2ccc(Cl)cc2)C(=O)C1CC(=O)Nc1ccc(F)cc1 (stereo unspecified)
- AbsAC1 (concentration giving Tm-shift threshold 1.0): 6.03 µM

Compound: Nc1ccccc1N=Nc1ccccc1N
- AbsAC1 (concentration giving Tm-shift threshold 1.0): 7.75 µM

Compound: O=C(Nc1ccc(S(=O)(=O)NCc2ccccc2)cc1)c1ccccc1[N+](=O)[O-]
- AbsAC1 (concentration giving Tm-shift threshold 1.0): 12 µM

Compound: O=C(N/N=C/c1ccsc1)c1c[nH]c2ccccc12
- AbsAC1 (concentration giving Tm-shift threshold 1.0): 17.9 µM

Compound: O=C(NCC[C@@H]1CC[C@@H](NC(=O)Nc2cc(F)ccc2F)[C@@H](CO)O1)Nc1ccc(F)cc1
- AbsAC1 (concentration giving Tm-shift threshold 1.0): 18.1 µM

Compound: COC(=O)C1=C(CS(=O)(=O)c2cc(OC)ccc2OC)NC(=O)NC1c1ccc(O)c(OC)c1 (stereo unspecified)
- AbsAC1 (concentration giving Tm-shift threshold 1.0): 3.09 µM

Compound: O=c1c2cc([N+](=O)[O-])cc([N+](=O)[O-])c2[nH]n1-c1ccccc1
- AbsAC1 (concentration giving Tm-shift threshold 1.0): 4.84 µM

Compound: O=C(N/N=C/c1ccncc1)c1cc2ccccc2o1
- AbsAC1 (concentration giving Tm-shift threshold 1.0): 6.07 µM

Compound: O=C(O)c1ccccc1Nc1ccc([N+](=O)[O-])cc1
- AbsAC1 (concentration giving Tm-shift threshold 1.0): 16.2 µM

Compound: C[C@H](CO)N1C[C@H](C)[C@@H](CN(C)C(=O)C2CC2)OCc2ccccc2-c2ccccc2C1=O
- AbsAC1 (concentration giving Tm-shift threshold 1.0): 35.4 µM

Compound: CC(C)CC(=O)n1sc(NC(=O)c2ccccc2)nc1=O
- AbsAC1 (concentration giving Tm-shift threshold 1.0): 6.61 µM

Compound: C/C=C/c1ccc2c(c1)O[C@@H](CN(C)C(=O)Nc1cc(F)ccc1F)[C@@H](C)CN([C@H](C)CO)S2(=O)=O
- AbsAC1 (concentration giving Tm-shift threshold 1.0): 20.6 µM

Compound: COc1cc(NS(=O)(=O)c2ccc(NS(=O)(=O)c3ccc(C)cc3)cc2)nc(OC)n1
- AbsAC1 (concentration giving Tm-shift threshold 1.0): 3.69 µM

Compound: CCOC(=O)c1ccc(S(=O)(=O)Nc2cc(C(=O)O)ccc2Cl)cc1
- AbsAC1 (concentration giving Tm-shift threshold 1.0): 26.2 µM

Compound: Cc1ccc(Cl)cc1N1CCN(C(=O)Cc2c(C(=O)O)[nH]c3ccc(Cl)cc23)CC1
- AbsAC1 (concentration giving Tm-shift threshold 1.0): 4.47 µM

Compound: O=c1oc(-c2ccc(O)c(O)c2)cc2cc(O)cc(O)c12
- AbsAC1 (concentration giving Tm-shift threshold 1.0): 4.66 µM

Compound: O=C(N/N=C/c1c(O)ccc2ccccc12)c1[nH]ncc1Br
- AbsAC1 (concentration giving Tm-shift threshold 1.0): 23.7 µM

Compound: COc1ccc(C)cc1NS(=O)(=O)c1ccc(NS(=O)(=O)c2ccc(NC(C)=O)cc2)cc1
- AbsAC1 (concentration giving Tm-shift threshold 1.0): 3.7 µM

Compound: O=C(CNS(=O)(=O)c1ccccc1)OCC(=O)c1c[nH]c2ccccc12
- AbsAC1 (concentration giving Tm-shift threshold 1.0): 9.88 µM

Compound: O=C(N/N=C/c1ccc(O)c(O)c1)N/N=C/c1ccc(O)c(O)c1
- AbsAC1 (concentration giving Tm-shift threshold 1.0): 7.88 µM

Compound: Cc1cccc(OC(C)C(=O)Nc2ccc3c(c2)OCCO3)c1 (stereo unspecified)
- AbsAC1 (concentration giving Tm-shift threshold 1.0): 15.1 µM

Compound: O=C(N/N=C/c1c[nH]c2ccccc12)c1cc2ccccc2o1
- AbsAC1 (concentration giving Tm-shift threshold 1.0): 2.71 µM

Compound: CCn1c2ccccc2c2cc(/C=N/NC(=O)c3ccncc3)ccc21
- AbsAC1 (concentration giving Tm-shift threshold 1.0): 25 µM

Compound: O=C(Nc1ccccc1)N1C[C@H]2[C@@H](c3ccccc31)[C@@H](CO)N2C(=O)c1ccncc1
- AbsAC1 (concentration giving Tm-shift threshold 1.0): 41.2 µM
